Laboratory results taken from paper PMC8962522, “Direct interaction of TrkA/CD44v3 is essential for NGF-promoted aggressiveness of breast cancer cells” (Journal of Experimental & Clinical Cancer Research : CR, 2022).

Legend:
TrkA phosphorylation = assay: Western blot of TrkA phosphorylation; format: cell-based
Source text: To further elucidate the mechanism of action of CD44v3 mimetic peptide 4, we studied its effect on the TrkA signaling pathway. First, we performed western blot analysis to determine the effect of mimetic peptide 4 on TrkA phosphorylation (Fig. 5A). […] Therefore, we performed acceptor (photo) bleaching (AB)-FRET to examine the effect of CD44v3 mimetic peptide 4 on NGF-induced RhoA activity in MDA-MB-231 cells transfected with a RhoA FRET biosensor [18] (Fig. 5B). […] Additionally, to confirm that this effect was independent of TrkA phosphorylation, we measured RhoA activation in MDA-MB-231 cells expressing dead TrkA kinase, which cannot be phosphorylated (Fig. 5D). […] Furthermore, a similar decrease in RhoA activation was obtained using the TrkA-H112A mutation, which also prevents the formation of the TrkA/CD44v3 complex in the absence or presence of the TrkA kinase inhibitor k252A (Supplementary Fig. 11B & C, Supplementary Video 1 & 2).
Fig. 5 CD44v3 is implicated in the phospho-TrkA-independent activation of RhoA GTPase. Phosphorylation of TrkA was measured in the presence of a scramble peptide or CD44v3 mimetic peptide 4 (P4) in the presence or absence of NGF (A). Schematic representation of the Rho biosensor; (B). […] Phosphorylation of TrkA and downstream Akt in wild-type MDA-MB-231 and MDA-MB-231 cells expressing kinase-dead TrkA, as determined by western blotting (D). […]

[1] = test system: TrkA/CD44 complex in COS-7 cells transfected with TrkA and CD44s or CD44v6; assay: PLA TrkA/CD44s or TrkA/CD44v6 complex formation in COS-7 cells; format: cell-based, African green monkey (COS-7 cells); conditions: NGF 100 ng/ml, 0, 5 or 30 min
Procedure: Cells (10,000 cells per well) were grown on acid-washed eight-well glass slides (Thermo Scientific) in the appropriate medium supplemented with 10% FBS for 24 h. After NGF treatment, paraformaldehyde (PAF)-fixed cells were incubated with 4% bovine serum albumin (BSA) or 5% FBS (for 1 h at 20 °C), followed by overnight incubation with primary antibodies (rabbit anti-TrkA or rabbit anti-IgG + mouse anti-pan-CD44; mouse anti-CD44v3; mouse anti-CD44v6; mouse anti-IgG2a; mouse anti-IgG2b; or mouse anti-IgG1). PLA was performed following the manufacturer’s instructions in the assay kit (Duolink PLA; Sigma–Aldrich). To obtain the correct representation of the PLA signal for each condition, 30 fields per condition were observed using a fluorescence microscope (Eclipse TiU; Nikon, Japan). The PLA signals (red dots) were automatically quantified using ImageJ software (with an in-house-developed plug-in). […]
Supplementary file 13046_2022_2314_MOESM3_ESM.pdf: Additional file 3: Supplementary Figure 1. […] The expression of all CD44 isoforms (A), CD44 variant 3 (B), CD44 variant 6 (C) and TrkA ([…]; D) was evaluated by RT–qPCR (normalized using PUM-1). No expression of CD44, CD44 variants [3 or 6] or TrkA was detected in COS-7 cells (A-D) compared with that in cells transfected with the expression plasmid carrying each protein. […]

Substance | effect on NGF-induced TrkA phosphorylation (TrkA phosphorylation) | effect on TrkA/CD44s or TrkA/CD44v6 complex formation (PLA) in COS-7 cells [1]
IDDDEDFISST [Peptide 4, mimetic peptide 4 (…) corresponding to the C-terminal region of CD44v3] | did not inhibit TrkA phosphorylation induced by NGF | 
NGF: recombinant human β-NGF (Alomone Labs, Israel) |  | Neither wild-type COS-7 cells nor COS-7 cells transfected with TrkA and the CD44s or CD44v6 isoform showed the formation of the dynamic TrkA/CD44 complex in PLA
